Measurements reported in doi:10.64898/2025.12.04.692444v1, “Calcium Dependent Protein Kinase 3 is not essential for the asexual replication of Plasmodium falciparum” (biorxiv, 2025).

How the values were obtained:
[1] = target: T1, PfCDPK3 (full-length recombinant CDPK3) (Plasmodium falciparum, UniProt Q9NJU9); test: ADP-Glo luminescence kinase assay; type: biochemical; conditions: MBP as exogenous substrate; 100 µM ATP; 5 mM CaCl2; 20 mM MgCl2; 40 mM Tris-Cl pH 7.5; 30 °C, 1 h
T1 construct: some truncated fragments
T1 sequence (Q9NJU9 1-562): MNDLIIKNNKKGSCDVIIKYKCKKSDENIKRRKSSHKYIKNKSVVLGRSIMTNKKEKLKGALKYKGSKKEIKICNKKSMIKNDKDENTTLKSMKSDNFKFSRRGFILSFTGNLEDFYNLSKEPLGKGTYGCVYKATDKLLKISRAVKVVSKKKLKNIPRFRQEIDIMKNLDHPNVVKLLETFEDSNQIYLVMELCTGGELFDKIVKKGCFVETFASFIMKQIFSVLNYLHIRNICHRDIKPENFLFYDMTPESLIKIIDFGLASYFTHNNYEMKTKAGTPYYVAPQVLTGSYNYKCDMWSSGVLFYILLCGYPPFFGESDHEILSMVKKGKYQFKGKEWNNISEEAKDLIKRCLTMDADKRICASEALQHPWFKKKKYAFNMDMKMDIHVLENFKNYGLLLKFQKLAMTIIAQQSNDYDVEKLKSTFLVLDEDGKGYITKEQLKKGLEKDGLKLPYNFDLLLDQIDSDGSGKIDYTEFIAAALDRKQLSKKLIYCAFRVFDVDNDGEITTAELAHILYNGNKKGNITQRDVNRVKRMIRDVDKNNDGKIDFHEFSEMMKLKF

[2] = target: T1, PfCDPK3 (full-length recombinant CDPK3); test: semi-synthetic epitope tagging: thiophosphorylation, PNBM alkylation, anti-thiophosphate ester Western blot; type: biochemical; conditions: GST as exogenous substrate; 100 µM ATPγS; 5 mM CaCl2; 50 mM MgCl2; 50 mM Tris; 30 °C, 2 h

Nc1ncnc2c1ncn2[C@@H]1O[C@H](COP(=O)(O)OP(=O)(O)OP(=O)(O)O)[C@@H](O)[C@H]1O [ATP]
ADP-Glo luminescence kinase assay [1]: conversion of ATP to ADP by the recombinant CDPK3, was higher in the presence of calcium

Nc1ncnc2c1ncn2[C@@H]1O[C@H](COP(=O)(O)OP(=O)(O)OP(O)(O)=S)[C@@H](O)[C@H]1O [ATPγS]
semi-synthetic epitope tagging: thiophosphorylation, PNBM alkylation, anti-thiop [2]: ATPγS, a ATP analog, containing terminal thiophosphate group was used as the source
